Like-named read-outs stand apart in the source and are kept apart here.
Experiments:
BT147 = assay: alamarBlue BTIC viability assay, BT147; format: cell-based; settings: Homo sapiens; BTIC line BT147, alamarBlue
BT69 = assay: neurosphere assay, BT69; format: cell-based, human; settings: 3 μM
cleaved PARP = assay: western blotting of cleaved PARP in BTICs; format: cell-based, human; settings: BT69, 24 hours
Method: (§1) BTIC spheres were enzymatically dissociated as described above and plated at 10^6 cells/2 mL of media. Cells were treated with vehicle (DMSO), pacritinib, TMZ, or a combination of pacritinib and TMZ and pelleted at select time points (3, 24, and 48 hours). For protein extraction, BTICs were lysed in modified radio-immunoprecipitation assay buffer supplemented with Complete Mini protease (Roche) and Halt phosphatase (Thermo Scientific) inhibitor cocktails. […] Blots were stained with primary antibodies followed by horseradish peroxidase-conjugated secondary antibodies. […] Cell Signaling Technology), STAT3 (1:1000; Cell Signaling Technology), p-Akt S473 (1:1000; Cell Signaling Technology), Akt (1:1000; Cell Signaling Technology), p-p44/42 MAPK (T202/Y204) (1:1000; Cell Signaling Technology), p44/42 MAPK (1:4000; Cell Signaling Technology), poly (ADP-ribose) polymerase (1:1000; Cell Signaling Technology), β-tubulin (1:1000; Cell Signaling Technology), and Actin (1:1000; Santa Cruz Biotechnology). Secondary antibodies included donkey anti-mouse (1:5000; Cell Signaling Technology), donkey anti-goat (1:5000; Millipore), and goat anti-rabbit (1:5000; Cell Signaling Technology). […] Bands were visualized with the SuperSignal West Pico chemiluminescent solution (Thermo Scientific) and an Amersham™ Imager 600 (General Electric).

p-Akt S473 = assay: western blotting of p-Akt in BTICs; format: cell-based, human
Method: as §1

[1] = test system: p-p44/42 MAPK (T202/Y204); assay: western blotting of p-p44/42 MAPK in BTICs; format: cell-based, human
Method: as §1

[2] = five-day pharmacokinetics by LC-MS, serum and brain; format: in vivo, mice; settings: SCID, mouse, five days, mean ± SD, N = 3; for concentration at 300 min: 300 minutes post-dosing; for concentration at 30 min: 30 minutes post-dosing
Method: Animal studies were performed following institutional ethical guidelines and protocols approved by the University of Calgary Health Sciences Animal Care Committee, accredited by the Canadian Council on Animal Care (CCAC). Non-tumor bearing mice were treated with 100 or 200 mg/kg doses of pacritinib by oral gavage for five consecutive days. Three mice per group were used. Post-dosing, blood was collected at 30 and 300 minute time points. The serum was separated by centrifugation. Liquid chromatography-mass spectrometry (LC-MS) was performed to determine the serum concentration of pacritinib. To determine brain penetration, brains were harvested and processed at the 300 minute time point following transcardiac perfusion with PBS. Brains were removed and flash frozen at -80°C. Pacritinib accumulation in the brain was analyzed using LC-MS.

[3] = test system: BT143 orthotopic xenograft; assay: Kaplan-Meier survival, orthotopic BT143 xenograft; format: in vivo; settings: BT143 xenografted mice; p < 0.4622 log-rank
[4] = BT147 and BT53, low micromolar concentrations, 3 hours

## C1=C/COCc2cc(ccc2OCCN2CCCC2)Nc2nccc(n2)-c2cccc(c2)COC/1 [pacritinib]
BT147
  IC50: 990 nM
BT69
  sphere formation: completely abolished sphere formation
Cleaved PARP
  cell death (cleaved PARP levels): increase in cleaved PARP levels
p-Akt S473; BT147 and BT53, 5 and 10 μM
  p-Akt S473: decreased
p-Akt S473; [4]
  phosphorylation of AKT S473: unchanged levels of phosphorylation
[1]; BT53, 5 and 10 μM
  p-p44/42 MAPK: decreased p-p44/42 MAPK
[1]; [4]
  phosphorylation of p44/42 MAPK (T202/Y204): unchanged levels of phosphorylation
[2]; brain, 100 mg/kg oral gavage, read-out: [Brain]
  concentration at 300 min: 910 ± 61 nM
[2]; brain, 200 mg/kg oral gavage, read-out: [Brain]
  concentration at 300 min: 840 ± 20 nM
[2]; serum, 100 mg/kg oral gavage
  concentration at 30 min: 2660 ± 720 nM
[2]; serum, 100 mg/kg oral gavage, read-out: [Serum]
  concentration at 300 min: 510 ± 140 nM
[2]; serum, 200 mg/kg oral gavage
  concentration at 30 min: 12600 ± 980 nM
[2]; serum, 200 mg/kg oral gavage, read-out: [Serum]
  concentration at 300 min: 430 ± 120 nM
[3]
  efficacy of treatment alone (Kaplan-Meier survival): no efficacy
